Assay results published in PubChem BioAssay AID342 (DTP/NCI, 2004).
Values joined by “and” are separate entries in the source; they are usually repeats but may differ in a detail not shown here. Identical values can stand only once. Square brackets hold non-standard residues; d marks the D form. Peptide text beside a SMILES is read from it. Ac5c = NC1(C(=O)O)CCCC1

System: Swiss mice, Sarcoma 180 sc, mean tumor weight T/C
Assay: NCI In Vivo Anticancer Drug Screen. Data for tumor model Sarcoma 180 (subcutaneous) in Swiss mice
Conditions: endpoint: mean tumor weight, higher = larger tumour
Procedure, shortened: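 Antitumor activity is assessed in mice with transplantable tumors. Treated (T) and vehicle control (C) groups are compared on survival or tumor size.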

C#C[C@]1(O)CC[C@H]2[C@@H]3CCc4cc(O)ccc4[C@H]3CC[C@@]21C
T/C (dose: 125.0 mg/kg/injection, schedule: Q#A X014 (sc), vehicle: steriod suspending solution): 30 % of control and 48 % of control and 50 % of control | T/C (dose: 187.5 mg/kg/injection, schedule: Q#A X014 (sc), vehicle: steriod suspending solution): 39 % of control and 50 % of control and 51 % of control | T/C (dose: 281.25 mg/kg/injection, schedule: Q#A X014 (sc), vehicle: steriod suspending solution): 62 % of control and 76 % of control

C[C@]12CC[C@H](O)CC1=CC[C@@H]1[C@@H]2CC[C@]2(C)c3nc4ccccc4cc3C[C@@H]12
T/C (dose: 15.6 mg/kg/injection, schedule: Q01DX007 (sc), vehicle: saline): 93 % of control | T/C (dose: 62.5 mg/kg/injection, schedule: Q01DX007 (sc), vehicle: saline): 57 % of control | T/C (dose: 125.0 mg/kg/injection, schedule: Q01DX007 (sc), vehicle: saline): 95 % of control | T/C (dose: 250.0 mg/kg/injection, schedule: Q01DX007 (sc), vehicle: saline): 66 % of control | T/C (dose: 500.0 mg/kg/injection, schedule: Q01DX007 (sc), vehicle: saline): 93 % of control

CN(C)[C@@H]1C(=O)C(C(=O)NCc2nc3[nH]cnc(=S)c3[nH]2)=C(O)[C@@]2(O)C(=O)C3=C(O)c4c(O)cccc4[C@@](C)(O)[C@H]3C[C@@H]12
T/C (dose: 14.0 mg/kg/injection, schedule: Q01DX007 (ip), vehicle: carboxymethylcellulose (CMC)): 71 % of control | T/C (dose: 28.0 mg/kg/injection, schedule: Q01DX007 (ip), vehicle: carboxymethylcellulose (CMC)): 58 % of control | T/C (dose: 56.0 mg/kg/injection, schedule: Q01DX007 (ip), vehicle: carboxymethylcellulose (CMC)): 54 % of control and 62 % of control | T/C (dose: 224.0 mg/kg/injection, schedule: Q01DX007 (ip), vehicle: carboxymethylcellulose (CMC)): 29 % of control

CN(C)c1ccc(/C=C/c2ccnc3ccccc23)cc1
T/C (dose: 15.5 mg/kg/injection, schedule: Q01DX007 (ip), vehicle: water): 82 % of control | T/C (dose: 62.0 mg/kg/injection, schedule: Q01DX007 (ip), vehicle: carboxymethylcellulose (CMC)): 86 % of control

Nc1cc(SCc2ccccc2)nc(N)n1
T/C (dose: 18.75 mg/kg/injection, schedule: Q#A X014 (ip), vehicle: methylcellulose (MC)): 52 % of control | T/C (dose: 37.5 mg/kg/injection, schedule: Q#A X014 (ip), vehicle: methylcellulose (MC)): 70 % of control | T/C (dose: 66.5 mg/kg/injection, schedule: Q#A X014 (ip), vehicle: methylcellulose (MC)): 29 % of control | T/C (dose: 75.0 mg/kg/injection, schedule: Q#A X014 (ip), vehicle: methylcellulose (MC)): 68 % of control | T/C (dose: 100.0 mg/kg/injection, schedule: Q#A X014 (ip), vehicle: methylcellulose (MC)): 40 % of control | T/C (dose: 225.0 mg/kg/injection, schedule: Q#A X014 (ip), vehicle: methylcellulose (MC)): 35 % of control

NC1(C(=O)NC2(C(=O)O)CCCC2)CCCC1 (H-[Ac5c]-[Ac5c]-OH)
T/C (dose: 7.5 mg/kg/injection, schedule: Q#A X014 (ip), vehicle: carboxymethylcellulose (CMC)): 66 % of control | T/C (dose: 15.0 mg/kg/injection, schedule: Q#A X014 (ip), vehicle: carboxymethylcellulose (CMC)): 65 % of control | T/C (dose: 30.0 mg/kg/injection, schedule: Q#A X014 (ip), vehicle: carboxymethylcellulose (CMC)): 58 % of control | T/C (dose: 60.0 mg/kg/injection, schedule: Q#A X014 (ip), vehicle: carboxymethylcellulose (CMC)): 32 % of control

CC(=O)[C@@]1(O)[C@H](C)C[C@H]2[C@@H]3C=C(C)C4=Cc5c(cnn5-c5ccccc5)C[C@]4(C)[C@H]3[C@@H](O)C[C@@]21C
T/C (dose: 0.11 mg/kg/injection, schedule: Q01DX007 (sc), vehicle: steriod suspending solution): 95 % of control | T/C (dose: 0.17 mg/kg/injection, schedule: Q01DX007 (sc), vehicle: steriod suspending solution): 84 % of control | T/C (dose: 0.75 mg/kg/injection, schedule: Q01DX007 (sc), vehicle: steriod suspending solution): 22 % of control and 42 % of control | T/C (dose: 1.0 mg/kg/injection, schedule: Q01DX007 (sc), vehicle: steriod suspending solution): 21 % of control | T/C (dose: 2.0 mg/kg/injection, schedule: Q01DX007 (sc), vehicle: steriod suspending solution): 23 % of control | T/C (dose: 4.0 mg/kg/injection, schedule: Q01DX007 (sc), vehicle: steriod suspending solution): 9 % of control

CC(=O)Nc1ccc2c(c1)Cc1cc(NC=O)ccc1-2
T/C (dose: 110.0 mg/kg/injection, schedule: Q01DX007 (ip), vehicle: carboxymethylcellulose (CMC)): 54 % of control and 72 % of control | T/C (dose: 165.0 mg/kg/injection, schedule: Q01DX007 (ip), vehicle: carboxymethylcellulose (CMC)): 87 % of control | T/C (dose: 250.0 mg/kg/injection, schedule: Q01DX007 (ip), vehicle: carboxymethylcellulose (CMC)): 46 % of control | T/C (dose: 375.0 mg/kg/injection, schedule: Q01DX007 (ip), vehicle: carboxymethylcellulose (CMC)): 79 % of control

Nc1nc(N)c2[nH]cnc2n1
T/C (dose: 6.25 mg/kg/injection, schedule: Q#A X014 (ip), vehicle: carboxymethylcellulose (CMC)): 106 % of control | T/C (dose: 11.25 mg/kg/injection, schedule: Q#A X014 (ip), vehicle: carboxymethylcellulose (CMC)): 103 % of control | T/C (dose: 22.5 mg/kg/injection, schedule: Q#A X014 (ip), vehicle: carboxymethylcellulose (CMC)): 83 % of control | T/C (dose: 25.0 mg/kg/injection, schedule: Q#A X014 (ip), vehicle: carboxymethylcellulose (CMC)): 121 % of control | T/C (dose: 45.0 mg/kg/injection, schedule: Q#A X014 (ip), vehicle: carboxymethylcellulose (CMC)): 68 % of control | T/C (dose: 90.0 mg/kg/injection, schedule: Q#A X014 (ip), vehicle: carboxymethylcellulose (CMC)): 48 % of control
